Experimental data reported in patent US7651978B2, “Selective herbicides based on a substituted phenylsulphonylaminocarbonyl-triazolinone” (Arysta LifeScience North America, LLC, priority 1998, dated 2010).

What was measured:
Assay type in all cases: in vivo
[1] = tested on: Alopecurus; assay: Pre-emergence test/greenhouse; conditions: 504 h, 250 g ai./ha, after three weeks, read-out: degree of damage, Alopecurus
Procedure: (§1) Pre-Emergence Test/Greenhouse Solvent: 5 parts by weight of acetone Emulsifier: 1 part by weight of alkylaryl polyglycol ether To produce a suitable preparation of active compound, 1 part by weight of active compound is mixed with the stated amount of solvent, the stated amount of emulsifier is added and the concentrate is diluted with water to the desired concentration. Seeds of the test plants are sown in normal soil. After about 24 hours, the soil is sprayed with the preparation of active compound such that the particular amount of active compound desired is applied per unit area. The concentration of the spray liquor is chosen so that the particular amount of active compound desired is applied in 500 ml of water per hectare. After three weeks, the degree of damage to the plants is assessed in % damage in comparison to the development of the untreated control. The figures denote: • 0%=no effect (like untreated control) • 100%=total destruction

[2] = tested on: Avena; assay: Pre-emergence test/greenhouse; conditions: 504 h, 250 g ai./ha, after three weeks, read-out: degree of damage, Avena
Procedure: as §1

[3] = tested on: Setaria; assay: Pre-emergence test/greenhouse; conditions: 250 g ai./ha, after three weeks
Procedure: as §1

[4] = tested on: Alopecurus; assay: Post-emergence test/greenhouse; conditions: 504 h, 250 g ai./ha, after three weeks, read-out: degree of damage, Alopecurus
Procedure: (§2) Post-Emergence Test/Greenhouse [table] To produce a suitable preparation of active compound, 1 part by weight of active compound is mixed with the stated amount of solvent, the stated amount of emulsifier is added and the concentrate is diluted with water to the desired concentration. Test plants which have a height of 5-15 cm are sprayed with the preparation of active compound such that the particular amounts of active compound desired are applied per unit area. The concentration of the spray liquor is chosen so that the particular amounts of active compound desired are applied in 500 ml of water/ha. After three weeks, the degree of damage to the plants is assessed in % damage in comparison to the development of the untreated control. The figures denote: • 0%=no effect (like untreated control) • 100%=total destruction

[5] = tested on: Avena; assay: Post-emergence test/greenhouse; conditions: 250 g ai./ha, after three weeks
Procedure: as §2

[6] = tested on: Setaria; assay: Post-emergence test/greenhouse; conditions: 250 g ai./ha, after three weeks
Procedure: as §2

SMILES	pest or weed control at 250 g/ha [1] [%]	pest or weed control at 250 g/ha [2] [%]	degree of damage, Setaria [3] [%]	pest or weed control at 250 g/ha [4] [%]	degree of damage, Avena [5] [%]	degree of damage, Setaria [6] [%]
COc1nn(C(=O)NS(=O)(=O)c2ccccc2OC(F)(F)C(F)F)c(=O)n1C [(G), 2-[2-(1,1,2,2-Tetrafluoroethoxy)-phenylsulphonylaminocarbonyl]-4-methyl-5-methoxy-2,4-dihydro-3H-1,2,4-triazol-3-one]	50	0	50	30	0	30
COc1nn(C(=O)NS(=O)(=O)c2ccccc2OC(F)(F)C(F)(F)F)c(=O)n1C [(H), 2-[2-(Pentafluoroethoxy)-phenylsulphonylaminocarbonyl]-4-methyl-5-methoxy-2,4-dihydro-3H-1,2,4-triazol-3-one]	–	–	–	40	80	20
